Measurements published in patent publication US20190119284A1, “ErbB Inhibitors and Uses Thereof” (The Regents of the University of California, priority 2016, published 2019).

Experiments:
P70S6K1 = P70S6K1 (Homo sapiens, UniProt P23443); experiment: Nanosyn in vitro kinase profiling: P70S6K1; format: biochemical
Procedure: (§1) This was confirmed by in vitro profiling against a panel of kinases, with compound 2 only showing potent inhibition of EGFR and Ab1 (Table 2).
(§2) In vitro Kinome Screen. In vitro profiling of compound 2 at 100 nM was conducted by Nanosyn.

EPH-B4 = EPH-B4 (Homo sapiens, UniProt P54760); experiment: Nanosyn in vitro kinase profiling: EPH-B4; format: biochemical
Chain of EPH-B4 (P54760 16-987, species assumed): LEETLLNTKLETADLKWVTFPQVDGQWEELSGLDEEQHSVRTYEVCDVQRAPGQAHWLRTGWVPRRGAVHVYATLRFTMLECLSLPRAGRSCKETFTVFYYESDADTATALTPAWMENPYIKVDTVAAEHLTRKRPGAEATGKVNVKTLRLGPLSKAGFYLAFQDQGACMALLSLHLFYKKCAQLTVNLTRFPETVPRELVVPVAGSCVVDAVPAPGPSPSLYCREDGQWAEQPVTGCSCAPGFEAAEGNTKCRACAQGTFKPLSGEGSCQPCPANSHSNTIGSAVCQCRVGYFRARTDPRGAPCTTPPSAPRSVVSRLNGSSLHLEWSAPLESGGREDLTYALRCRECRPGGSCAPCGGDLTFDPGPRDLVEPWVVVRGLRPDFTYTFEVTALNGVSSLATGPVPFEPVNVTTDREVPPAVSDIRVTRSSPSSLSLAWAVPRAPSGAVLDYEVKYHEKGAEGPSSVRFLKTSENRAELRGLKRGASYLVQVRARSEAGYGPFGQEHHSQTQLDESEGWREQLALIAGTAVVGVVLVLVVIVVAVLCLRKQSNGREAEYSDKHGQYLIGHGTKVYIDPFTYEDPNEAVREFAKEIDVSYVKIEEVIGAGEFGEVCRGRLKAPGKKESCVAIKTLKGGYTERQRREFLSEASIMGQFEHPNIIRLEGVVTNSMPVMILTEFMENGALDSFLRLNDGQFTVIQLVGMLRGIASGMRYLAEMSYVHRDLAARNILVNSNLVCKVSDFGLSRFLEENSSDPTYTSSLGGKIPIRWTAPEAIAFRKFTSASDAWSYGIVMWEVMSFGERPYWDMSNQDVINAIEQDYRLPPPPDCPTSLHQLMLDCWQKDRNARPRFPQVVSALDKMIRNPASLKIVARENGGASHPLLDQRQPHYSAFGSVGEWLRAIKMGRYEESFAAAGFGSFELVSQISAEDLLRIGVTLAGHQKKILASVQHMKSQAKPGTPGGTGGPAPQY
Procedure: as §1, §2

AKT1 = AKT1 (Homo sapiens, UniProt P31749); experiment: Nanosyn in vitro kinase profiling: AKT1; format: biochemical
Chain of AKT1 (P31749 whole entry): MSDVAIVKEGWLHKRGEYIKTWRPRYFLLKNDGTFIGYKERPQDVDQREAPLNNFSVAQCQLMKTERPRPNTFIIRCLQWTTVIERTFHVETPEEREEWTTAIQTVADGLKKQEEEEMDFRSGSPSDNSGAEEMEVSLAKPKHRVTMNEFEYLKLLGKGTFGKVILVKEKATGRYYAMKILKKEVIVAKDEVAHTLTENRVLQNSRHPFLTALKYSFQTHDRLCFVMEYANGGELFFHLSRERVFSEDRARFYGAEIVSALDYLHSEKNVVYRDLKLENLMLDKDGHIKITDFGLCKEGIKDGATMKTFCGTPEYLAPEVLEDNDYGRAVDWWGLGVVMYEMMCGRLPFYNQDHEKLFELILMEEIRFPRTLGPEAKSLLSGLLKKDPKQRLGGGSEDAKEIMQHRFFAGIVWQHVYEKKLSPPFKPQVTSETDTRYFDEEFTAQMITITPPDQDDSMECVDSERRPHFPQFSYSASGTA
Procedure: as §1, §2

TIE2 = TIE2 (Homo sapiens, UniProt Q02763); experiment: Nanosyn in vitro kinase profiling: TIE2; format: biochemical
Chain of TIE2 (Q02763 23-1124, species assumed): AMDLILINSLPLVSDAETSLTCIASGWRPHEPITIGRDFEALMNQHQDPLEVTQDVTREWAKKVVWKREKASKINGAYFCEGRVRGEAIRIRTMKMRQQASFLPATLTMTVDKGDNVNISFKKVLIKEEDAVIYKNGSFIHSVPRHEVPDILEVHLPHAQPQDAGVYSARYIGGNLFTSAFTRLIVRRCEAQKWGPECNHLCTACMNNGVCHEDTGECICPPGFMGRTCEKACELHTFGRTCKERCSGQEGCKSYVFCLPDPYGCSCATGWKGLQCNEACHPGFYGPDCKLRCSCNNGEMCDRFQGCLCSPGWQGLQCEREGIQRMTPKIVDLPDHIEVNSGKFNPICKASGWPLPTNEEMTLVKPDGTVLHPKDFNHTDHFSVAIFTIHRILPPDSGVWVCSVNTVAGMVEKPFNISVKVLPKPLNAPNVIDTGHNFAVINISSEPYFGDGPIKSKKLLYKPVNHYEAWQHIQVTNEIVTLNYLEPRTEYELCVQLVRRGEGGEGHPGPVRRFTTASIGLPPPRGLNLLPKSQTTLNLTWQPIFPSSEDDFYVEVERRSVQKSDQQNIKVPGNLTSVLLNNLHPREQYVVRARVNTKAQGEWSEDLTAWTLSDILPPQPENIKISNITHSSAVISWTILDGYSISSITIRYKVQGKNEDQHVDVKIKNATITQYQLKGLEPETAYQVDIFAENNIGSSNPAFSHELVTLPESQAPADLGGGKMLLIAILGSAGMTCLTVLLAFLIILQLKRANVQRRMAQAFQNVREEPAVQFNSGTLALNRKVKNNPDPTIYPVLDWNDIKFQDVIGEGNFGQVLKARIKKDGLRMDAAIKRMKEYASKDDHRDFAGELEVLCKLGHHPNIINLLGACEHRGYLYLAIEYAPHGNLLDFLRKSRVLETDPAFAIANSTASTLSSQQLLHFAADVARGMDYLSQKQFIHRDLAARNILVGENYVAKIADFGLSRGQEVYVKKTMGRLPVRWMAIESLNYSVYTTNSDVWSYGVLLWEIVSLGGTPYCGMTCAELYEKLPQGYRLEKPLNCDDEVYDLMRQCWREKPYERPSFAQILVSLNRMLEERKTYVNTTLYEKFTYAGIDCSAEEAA
Procedure: as §1, §2

SK-BR-3 cells = experiment: 72 h proliferation of SK-BR-3 cells in the presence or absence of NRG; format: cell-based; conditions: SK-BR-3, 72 h dose response +/- NRG
Procedure: FIGS. 1A-1E. NRG rescues HER2 over-expressing cancer cells from HER2 inhibitors. […] FIG 1B: Same experiment as depicted in FIG. 1A, but with the inhibitor TAK-285. FIG. 1C: The ability of NRG to rescue SK-BR-3 and BT-474 cell proliferation from HER2 inhibitors is dose dependent. Cells were treated with 1 μM of the indicated inhibitor in the presence of varying concentrations of NRG, and proliferation was read out after 72 h (mean±SD, n=3). […] FIG. 1E: Cartoon schematic of the EGFR family kinase domain asymmetric dimer. The C-terminal domain of the ‘activator’ kinase (right) interacts with the N-terminal portion of the ‘receiver’ kinase (left). This interaction stabilizes the active conformation of the receiver kinase identified by the ‘in’ conformation of the receiver kinase's α-C helix and the ordered extension of the activation loop.
(§3) FIGS. 5A-5D. […] FIG. 5A: Chemical structure of compound 3 (also referred to herein as compound 178). FIG. 5B: Proliferation curves for compound 3 against the Ba/F3 cell line panel (mean±SD, n=3). […] FIG. 5D: The same assay in FIG. 2A was performed with compound 3 in SK-BR-3 cells.

[1] = target: T1, 2YF-VC/3wt + NRG Ba/F3 cells (Homo sapiens, UniProt P04626, DELINS776-776VC/Y1005F/Y1023F/Y1112F/Y1127F/Y1139F/Y1196F/Y1221F/Y1222F/Y1248F, cells depend on it); experiment: Ba/F3 proliferation assay, 2YF-VC/3wt + NRG; format: cell-based; conditions: Table 4; ± S.D., n = 2; read-out: IC50, 2YF-VC/3wt + NRG
T1 construct: reported HER2 oncogenic mutants in the HER2YF construct
Procedure: For the 2YF/3wt cells, the parental cells were first transduced with HER3 according to the protocol above and were then spun down at 500×g for 5 min and re-suspended in media supplemented with 10 ng/mL IL-3 and 3 μg/mL puromycin (Invitrogen). Cells were maintained in these conditions for seven days, passaging as required. After seven days the cells were spun down, washed with fresh media, and then used for a subsequent round of transduction according to the protocol above with HER2YF virus. […] The cells were maintained in these conditions for seven days, passaging as required. After seven days the cells were spun down, washed with fresh media, and then suspended in media supplemented with 10 ng/mL of NRG. Cells were maintained in these conditions for seven days to select for a NRG dependent population of 2YF/3wt Ba/F3 cells that were then maintained as described above. The same protocol was used for the 2YF-L755S/3wt, 2YF-YVMA/3wt, and 2YF-VC/3wt cell lines using the indicated constructs.
Proliferation Assays. […] The following day media was changed to fresh media that contained either DMSO or the indicated concentration of drug plus NRG (50 ng/mL final concentration) as indicated. […] For all normalized assays, proliferation was normalized to the DMSO control condition. […]

JAK2 = JAK2 (Homo sapiens, UniProt O60674); experiment: Nanosyn in vitro kinase profiling: JAK2; format: biochemical; conditions: compound at 1 μM
Chain of JAK2 (O60674 whole entry, species assumed): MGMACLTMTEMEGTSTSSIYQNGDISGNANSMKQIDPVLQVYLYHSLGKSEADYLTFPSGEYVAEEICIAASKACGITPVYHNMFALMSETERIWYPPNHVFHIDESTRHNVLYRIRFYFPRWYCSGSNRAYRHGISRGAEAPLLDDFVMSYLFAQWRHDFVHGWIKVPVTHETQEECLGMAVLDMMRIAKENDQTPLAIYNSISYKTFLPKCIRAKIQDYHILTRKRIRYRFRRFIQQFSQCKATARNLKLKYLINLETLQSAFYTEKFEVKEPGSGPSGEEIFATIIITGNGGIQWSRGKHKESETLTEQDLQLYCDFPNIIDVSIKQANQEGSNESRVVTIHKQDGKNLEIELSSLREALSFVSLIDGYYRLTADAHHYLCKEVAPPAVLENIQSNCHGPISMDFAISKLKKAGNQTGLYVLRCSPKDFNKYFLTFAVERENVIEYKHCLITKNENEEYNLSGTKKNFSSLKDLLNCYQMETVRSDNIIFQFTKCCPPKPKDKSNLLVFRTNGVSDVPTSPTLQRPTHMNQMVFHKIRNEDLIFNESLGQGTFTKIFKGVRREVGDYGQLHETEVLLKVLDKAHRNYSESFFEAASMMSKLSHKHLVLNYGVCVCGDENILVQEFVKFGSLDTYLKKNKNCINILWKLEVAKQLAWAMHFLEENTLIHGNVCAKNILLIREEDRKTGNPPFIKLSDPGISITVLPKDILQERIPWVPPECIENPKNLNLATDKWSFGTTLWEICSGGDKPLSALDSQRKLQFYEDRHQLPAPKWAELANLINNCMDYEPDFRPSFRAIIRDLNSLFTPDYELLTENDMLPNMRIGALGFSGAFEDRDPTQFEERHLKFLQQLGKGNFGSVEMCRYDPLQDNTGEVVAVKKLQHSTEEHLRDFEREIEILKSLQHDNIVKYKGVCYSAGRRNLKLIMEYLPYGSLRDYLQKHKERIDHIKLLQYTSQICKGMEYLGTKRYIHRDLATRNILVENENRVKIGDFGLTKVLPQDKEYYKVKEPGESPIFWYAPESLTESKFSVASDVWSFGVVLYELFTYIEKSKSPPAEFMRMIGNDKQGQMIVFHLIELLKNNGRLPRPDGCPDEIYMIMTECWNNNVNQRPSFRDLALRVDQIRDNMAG

CHL-1 cells = experiment: growth of CHL-1 cells over 96 h (IncuCyte Zoom confluence); format: cell-based; conditions: CHL-1, 96 h, compared with lapatinib
[2] = system: HER2/HER3 signaling in SK-BR-3 cells; experiment: HER2/HER3 signaling in SK-BR-3 cells (western blot); format: cell-based
Description: FIGS. 1A-1E. […] FIG. 1E: Cartoon schematic of the EGFR family kinase domain asymmetric dimer. The C-terminal domain of the ‘activator’ kinase (right) interacts with the N-terminal portion of the ‘receiver’ kinase (left). This interaction stabilizes the active conformation of the receiver kinase identified by the ‘in’ conformation of the receiver kinase's α-C helix and the ordered extension of the activation loop.

[3] = system: HER2/HER3 signaling in CW-2 cells (HER3 E928G); experiment: HER2/HER3 signaling in CW-2 cells +/- NRG, 1 h; format: cell-based; conditions: CW-2, dose response
[4] = system: Ba/F3 cell line panel (HER2YF/HER3); experiment: 48 h proliferation of the Ba/F3 cell line panel (CellTiter-Glo); format: cell-based; conditions: 48 h proliferation curves
Procedure: FIGS. 3A-3D. Design and execution of a high-throughput screen identifies a novel HER2/HER3 inhibitor. FIG. 3A: 2YF/3wt cells were incubated in the presence or absence of NRG for 48 h and proliferation was assessed by CellTiter-Glo (mean±SD, n=1). […] FIG. 3C: Structure and proliferation curves for hit compound 1 (also referred herein as compound 185) against the Ba/F3 cell line panel (mean±SD, n=3), FIG. 3D: Structure and proliferation curves for compound 2 (also referred to herein as compound 55A) against the panel of Ba/F3 cell lines (mean±SD, n=3).
FIGS. 4A-4F. Compound 2 is a selective Type I inhibitor for HER2. […] FIG. 4B: Thermal stabilization of the HER3 kinase domain by either compound 2 or ATP as determined by Thermofluor (mean±SD, n=3). FIGS. 4C-4D: The crystal structure of either erlotinib (FIG. 4C) or 2 (FIG. 4D) bound to EGFR V924R. The kinase domain in complex with compound 2 has been stabilized in the active confirmation by drug binding, despite the mutation—as evidenced by the ordered extension of the activation loop and the inward positioning of the α-C helix.
as §3
FIG. 10. […]

Chain of P70S6K1 (P23443 whole entry, species assumed): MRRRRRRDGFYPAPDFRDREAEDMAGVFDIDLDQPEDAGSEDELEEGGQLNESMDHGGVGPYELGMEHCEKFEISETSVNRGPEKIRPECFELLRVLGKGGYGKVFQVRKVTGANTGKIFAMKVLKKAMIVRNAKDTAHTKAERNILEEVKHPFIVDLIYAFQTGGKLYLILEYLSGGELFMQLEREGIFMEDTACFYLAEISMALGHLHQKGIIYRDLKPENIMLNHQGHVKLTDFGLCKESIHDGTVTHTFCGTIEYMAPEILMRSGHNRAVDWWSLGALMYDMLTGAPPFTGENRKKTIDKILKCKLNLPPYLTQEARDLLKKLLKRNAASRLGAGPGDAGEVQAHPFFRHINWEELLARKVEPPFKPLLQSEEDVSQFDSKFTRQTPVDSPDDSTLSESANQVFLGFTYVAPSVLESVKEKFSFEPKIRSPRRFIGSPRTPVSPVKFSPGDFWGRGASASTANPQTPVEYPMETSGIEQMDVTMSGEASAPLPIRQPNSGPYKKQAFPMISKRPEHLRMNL

Work on `COc1ccc(-c2ccco2)cc1Nc1ncnc2[nH]nc(-c3ccco3)c12` [compound 2, 3-(furan-2-yl)-N-(5-(furan-2-yl)-2-methoxyphenyl)-1H-pyrazolo[3,4-d]pyrimidin-4-amine] yielded an inhibition at 0.1 µM (P70S6K1; compound at 100 nM) of 8.88%, an inhibition at 1 µM (P70S6K1; compound at 1 μM) of 38.4% and an inhibition at 0.1 µM (EPH-B4; compound at 100 nM) of 3.44%. The inhibition at 1 µM (EPH-B4; compound at 1 μM) was 21.7%, the inhibition at 0.1 µM (AKT1; compound at 100 nM) was 14.3% and the inhibition at 1 µM (AKT1; compound at 1 μM) was 33%. For the same molecule, the inhibition at 0.1 µM (TIE2; compound at 100 nM) was 12.8% and the inhibition at 1 µM (TIE2; compound at 1 μM) was 59.7%.
`COc1ccc(-c2ccoc2)cc1Nc1ncnc2[nH]cc(-c3cc[nH]n3)c12` [compound 3, N-(5-(furan-3-yl)-2-methoxyphenyl)-5-(1H-pyrazol-3-yl)-7H-pyrrolo[2,3-d]pyrimidin-4-amine] was tested, and the “sensitivity of proliferation inhibition to NRG” value (SK-BR-3 cells) was “insensitive to the presence of NRG”, the GI50 [1] was 7.7 ± 1 nM and the inhibition at 1 µM (JAK2) was 83%. For the same molecule, the “reduction of cell growth (confluence)” value (CHL-1 cells) was “more effective at reducing the growth of CHL-1 cells”.
In the case of `CS(=O)(=O)CCNCc1ccc(-c2ccc3ncnc(Nc4ccc(OCc5cccc(F)c5)c(Cl)c4)c3c2)o1` [lapatinib], the “activation of EGFR family members” value ([2]; SK-BR-3, 1 μM lapatinib +/- NRG, 1 h) is reported as “HER3 is the only member of the EGFR family who remains activated”, the “HER2/HER3 signaling after NRG pre-treatment” value ([2]; SK-BR-3, NRG or vehicle 15 min then dose response 15 min) is reported as “NRG pre-treatment rescues HER2/HER3 signaling” and the “efficacy on signaling, 15 min pre-treat vs simultaneous addition with NRG” value ([2]; SK-BR-3, serum starved 24 h) is reported as “reduced efficacy of lapatinib when simultaneously added with NRG”. For the same molecule, the “HER2/HER3 signaling over a time-course” value ([2]; SK-BR-3 treated with lapatinib, NRG, or both) was “NRG rescues p-HER3 and all downstream signaling at all time points examined”, the “HER2/HER3 signaling +/- NRG” value [3] was “NRG rescues HER2/HER3 signaling” and the “level of pathway inhibition distinguished by the Ba/F3 panel” value [4] was “specifically inhibit signaling at the HER2/HER3 level”.
